Data as given in PubChem BioAssay (NCI).
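Five compound concentrations were applied to cells in 96-well plates for 48 hours; endpoints were derived by simple linear interpolation of the resulting dose-response curve. The concentration for 50% growth inhibition is given as GI50. Definition used: TGI = concentration required for complete inhibition of growth.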

Columns and labels:
Experiment in all cases: NCI tumour cell line growth inhibition, 48 h
A498 renal = tested on: A498 renal
A549 NSCLC = tested on: A549 NSCLC
CAKI-1 renal = tested on: CAKI-1 renal
CCRF-CEM leukemia = tested on: CCRF-CEM leukemia
COLO 205 colon = tested on: COLO 205 colon
DLD-1 colon = tested on: DLD-1 colon
DMS 273 small cell lung = tested on: DMS 273 small cell lung
EKVX NSCLC = tested on: EKVX NSCLC
HCC-2998 colon = tested on: HCC-2998 colon
HCT-116 colon = tested on: HCT-116 colon
HCT-15 colon = tested on: HCT-15 colon
HL-60(TB) leukemia = tested on: HL-60(TB) leukemia
HOP-18 NSCLC = tested on: HOP-18 NSCLC
HOP-62 NSCLC = tested on: HOP-62 NSCLC
HOP-92 NSCLC = tested on: HOP-92 NSCLC
HT29 colon = tested on: HT29 colon
IGROV1 ovarian = tested on: IGROV1 ovarian
K-562 leukemia = tested on: K-562 leukemia
KM12 colon = tested on: KM12 colon
KM20L2 colon = tested on: KM20L2 colon
LOX IMVI melanoma = tested on: LOX IMVI melanoma
MALME-3M melanoma = tested on: MALME-3M melanoma
MCF7 breast = tested on: MCF7 breast
MOLT-4 leukemia = tested on: MOLT-4 leukemia
NCI-H226 lung = tested on: NCI-H226 lung
NCI-H23 lung = tested on: NCI-H23 lung
NCI-H460 lung = tested on: NCI-H460 lung
NCI-H522 lung = tested on: NCI-H522 lung
NCI/ADR-RES ovarian = tested on: NCI/ADR-RES ovarian
OVCAR-3 ovarian = tested on: OVCAR-3 ovarian
OVCAR-4 ovarian = tested on: OVCAR-4 ovarian
OVCAR-5 ovarian = tested on: OVCAR-5 ovarian
OVCAR-8 ovarian = tested on: OVCAR-8 ovarian
P388 leukemia = tested on: P388 leukemia
P388/ADR leukemia = tested on: P388/ADR leukemia
RPMI-8226 leukemia = tested on: RPMI-8226 leukemia
RXF 393 renal = tested on: RXF 393 renal
SF-268 CNS = tested on: SF-268 CNS
SF-295 CNS = tested on: SF-295 CNS
SF-539 CNS = tested on: SF-539 CNS
SK-MEL-2 melanoma = tested on: SK-MEL-2 melanoma
SK-MEL-28 melanoma = tested on: SK-MEL-28 melanoma
SK-MEL-5 melanoma = tested on: SK-MEL-5 melanoma
SK-OV-3 ovarian = tested on: SK-OV-3 ovarian
SN12C renal = tested on: SN12C renal
SN12K1 renal = tested on: SN12K1 renal
SNB-19 CNS = tested on: SNB-19 CNS
SNB-75 CNS = tested on: SNB-75 CNS
SNB-78 CNS = tested on: SNB-78 CNS
SW-620 colon = tested on: SW-620 colon
U251 CNS = tested on: U251 CNS
UACC-257 melanoma = tested on: UACC-257 melanoma
UACC-62 melanoma = tested on: UACC-62 melanoma
UO-31 renal = tested on: UO-31 renal
XF 498 CNS = tested on: XF 498 CNS

NC1CCCCC1N.Nc1c(N=Nc2ccc(-c3ccc(N=Nc4cc(S(=O)(=O)[O-])c5ccccc5c4N)cc3)cc2)cc(S(=O)(=O)[O-])c2ccccc12.[OH3+].[OH3+].[Pt+4]
GI50 (A498 renal): > 100 µM | TGI (A498 renal): > 100 µM | GI50 (A549 NSCLC): > 76.5 µM | TGI (A549 NSCLC): > 100 µM | GI50 (CAKI-1 renal): > 39.9 µM | TGI (CAKI-1 renal): > 56.9 µM | GI50 (CCRF-CEM leukemia): 29.2 µM | TGI (CCRF-CEM leukemia): > 79.3 µM | GI50 (COLO 205 colon): 17.1 µM | TGI (COLO 205 colon): 32.9 µM | GI50 (DLD-1 colon): 21.1 µM | TGI (DLD-1 colon): 43.5 µM | GI50 (DMS 273 small cell lung): 59.2 µM | TGI (DMS 273 small cell lung): > 100 µM | GI50 (EKVX NSCLC): 33.8 µM | TGI (EKVX NSCLC): 81.7 µM | GI50 (HCC-2998 colon): > 90.9 µM | TGI (HCC-2998 colon): > 100 µM | GI50 (HCT-116 colon): > 96.1 µM | TGI (HCT-116 colon): > 100 µM | GI50 (HCT-15 colon): > 43.3 µM | TGI (HCT-15 colon): > 59.6 µM | GI50 (HL-60(TB) leukemia): 21.2 µM | TGI (HL-60(TB) leukemia): 50.9 µM | GI50 (HOP-18 NSCLC): 24.5 µM | TGI (HOP-18 NSCLC): 53.3 µM | GI50 (HOP-62 NSCLC): > 100 µM | TGI (HOP-62 NSCLC): > 100 µM | GI50 (HOP-92 NSCLC): 14.2 µM | TGI (HOP-92 NSCLC): 19.9 µM | GI50 (HT29 colon): 20.1 µM | TGI (HT29 colon): 38.8 µM | GI50 (IGROV1 ovarian): 48.5 µM | TGI (IGROV1 ovarian): > 100 µM | GI50 (K-562 leukemia): 25 µM | TGI (K-562 leukemia): 64.2 µM | GI50 (KM12 colon): > 60.5 µM | TGI (KM12 colon): > 100 µM | GI50 (KM20L2 colon): > 100 µM | TGI (KM20L2 colon): > 100 µM | GI50 (LOX IMVI melanoma): > 52.2 µM | TGI (LOX IMVI melanoma): > 80.7 µM | GI50 (MALME-3M melanoma): 15.4 µM | TGI (MALME-3M melanoma): 22.2 µM | GI50 (MCF7 breast): 30.9 µM | TGI (MCF7 breast): > 100 µM | GI50 (MOLT-4 leukemia): 21.1 µM | TGI (MOLT-4 leukemia): 54.6 µM | GI50 (NCI-H226 lung): > 52.6 µM | TGI (NCI-H226 lung): > 100 µM | GI50 (NCI-H23 lung): 67.9 µM | TGI (NCI-H23 lung): > 100 µM | GI50 (NCI-H460 lung): 40 µM | TGI (NCI-H460 lung): > 100 µM | GI50 (NCI-H522 lung): 19.6 µM | TGI (NCI-H522 lung): 37.9 µM | GI50 (NCI/ADR-RES ovarian): 20.9 µM | TGI (NCI/ADR-RES ovarian): 43 µM | GI50 (OVCAR-3 ovarian): 42.8 µM | TGI (OVCAR-3 ovarian): > 60.1 µM | GI50 (OVCAR-4 ovarian): 35.3 µM | TGI (OVCAR-4 ovarian): > 93 µM | GI50 (OVCAR-5 ovarian): > 100 µM | TGI (OVCAR-5 ovarian): > 100 µM | GI50 (OVCAR-8 ovarian): 26.8 µM | TGI (OVCAR-8 ovarian): > 68.1 µM | GI50 (P388 leukemia): 26.3 µM | TGI (P388 leukemia): 90.5 µM | GI50 (P388/ADR leukemia): 22.6 µM | TGI (P388/ADR leukemia): > 62 µM | GI50 (RPMI-8226 leukemia): 25.2 µM | TGI (RPMI-8226 leukemia): 66.3 µM | GI50 (RXF 393 renal): 20.3 µM | TGI (RXF 393 renal): 68.5 µM | GI50 (SF-268 CNS): > 78.6 µM | TGI (SF-268 CNS): > 100 µM | GI50 (SF-295 CNS): > 100 µM | TGI (SF-295 CNS): > 100 µM | GI50 (SF-539 CNS): > 100 µM | TGI (SF-539 CNS): > 100 µM | GI50 (SK-MEL-2 melanoma): 45.6 µM | TGI (SK-MEL-2 melanoma): > 100 µM | GI50 (SK-MEL-28 melanoma): 22 µM | TGI (SK-MEL-28 melanoma): 42.2 µM | GI50 (SK-MEL-5 melanoma): 33 µM | TGI (SK-MEL-5 melanoma): > 83.9 µM | GI50 (SK-OV-3 ovarian): > 100 µM | TGI (SK-OV-3 ovarian): > 100 µM | GI50 (SN12C renal): > 56.9 µM | TGI (SN12C renal): > 100 µM | GI50 (SN12K1 renal): 27.3 µM | TGI (SN12K1 renal): > 58.2 µM | GI50 (SNB-19 CNS): > 100 µM | TGI (SNB-19 CNS): > 100 µM | GI50 (SNB-75 CNS): > 77.2 µM | TGI (SNB-75 CNS): > 100 µM | GI50 (SNB-78 CNS): > 76.5 µM | TGI (SNB-78 CNS): > 100 µM | GI50 (SW-620 colon): 25.2 µM | TGI (SW-620 colon): 49.4 µM | GI50 (U251 CNS): > 100 µM | TGI (U251 CNS): > 100 µM | GI50 (UACC-257 melanoma): 18.1 µM | TGI (UACC-257 melanoma): 34.7 µM | GI50 (UACC-62 melanoma): 61.4 µM | TGI (UACC-62 melanoma): > 100 µM | GI50 (UO-31 renal): > 100 µM | TGI (UO-31 renal): > 100 µM | GI50 (XF 498 CNS): 20.4 µM | TGI (XF 498 CNS): 42 µM
